In ChEMBL document CHEMBL5154671 (Eur J Med Chem, 2022):
pEC50: −log10 of the molar value. The source made the active and inactive calls. The calls are words filed in the database; no cut-off is given here.

Key:
Mus musculus [1] = assay: Protection against liver fibrosis in high-fat/high-sugar diet and CCl4-induced nonalcoholic steatohepatitis male C57BL/6 mouse assessed as decrease in collagen area at 100 mg/kg, po administered for 4 weeks; assay type: functional, organism-based
Mus musculus [2] = assay: Protection against CCl4-induced liver fibrosis in male C57BL/6 mouse assessed as decrease in collagen area in liver at 100 mg/kg measured by masson staining; assay type: functional, organism-based
Mus musculus [3] = assay: Anti-NASH activity in high-fat/high-sugar diet and CCl4-induced nonalcoholic steatohepatitis male C57BL/6 mouse assessed as decrease in FAS mRNA expression at 100 mg/kg, po administered for 4 weeks; assay type: functional, organism-based
[4] = target: T1, Peroxisome proliferator-activated receptor gamma (Homo sapiens, UniProt P37231); assay: Agonist activity at human PPARgamma measured by dual luciferase reporter gene assay
T1 sequence (P37231 whole entry): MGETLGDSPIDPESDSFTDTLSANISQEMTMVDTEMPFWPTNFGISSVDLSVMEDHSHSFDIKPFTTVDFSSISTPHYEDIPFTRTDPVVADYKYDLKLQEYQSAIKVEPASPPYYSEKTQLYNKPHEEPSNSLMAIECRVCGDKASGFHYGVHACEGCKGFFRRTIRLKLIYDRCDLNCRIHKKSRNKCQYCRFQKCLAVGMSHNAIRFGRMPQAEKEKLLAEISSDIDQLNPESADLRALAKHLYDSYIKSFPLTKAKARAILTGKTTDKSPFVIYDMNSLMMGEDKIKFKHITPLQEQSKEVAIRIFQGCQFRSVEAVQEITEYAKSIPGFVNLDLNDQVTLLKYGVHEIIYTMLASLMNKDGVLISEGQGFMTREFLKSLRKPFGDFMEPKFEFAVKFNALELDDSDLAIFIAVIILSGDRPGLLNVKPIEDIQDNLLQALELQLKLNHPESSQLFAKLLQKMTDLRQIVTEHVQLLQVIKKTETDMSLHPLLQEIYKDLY

Mus musculus [5] = assay: Anti-NASH activity in high-fat/high-sugar diet and CCl4-induced nonalcoholic steatohepatitis male C57BL/6 mouse assessed as decrease in hepatic TC level at 100 mg/kg, po administered for 4 weeks; assay type: functional, organism-based
Mus musculus [6] = assay: Anti-inflammatory activity in high-fat/high-sugar diet and CCl4-induced nonalcoholic steatohepatitis male C57BL/6 mouse assessed as decrease in IL-1beta mRNA expression at 100 mg/kg, po administered for 4 weeks; assay type: functional, organism-based
[7] = Acute toxicity in ICR mouse assessed as change in serum urea level at 500 mg/kg, IG; assay type: organism-based; conditions: in vivo, po
[8] = target: T2, Peroxisome proliferator-activated receptor delta (Homo sapiens, UniProt Q03181); assay: Agonist activity at human PPARdelta measured by dual luciferase reporter gene assay
T2 sequence (Q03181 whole entry): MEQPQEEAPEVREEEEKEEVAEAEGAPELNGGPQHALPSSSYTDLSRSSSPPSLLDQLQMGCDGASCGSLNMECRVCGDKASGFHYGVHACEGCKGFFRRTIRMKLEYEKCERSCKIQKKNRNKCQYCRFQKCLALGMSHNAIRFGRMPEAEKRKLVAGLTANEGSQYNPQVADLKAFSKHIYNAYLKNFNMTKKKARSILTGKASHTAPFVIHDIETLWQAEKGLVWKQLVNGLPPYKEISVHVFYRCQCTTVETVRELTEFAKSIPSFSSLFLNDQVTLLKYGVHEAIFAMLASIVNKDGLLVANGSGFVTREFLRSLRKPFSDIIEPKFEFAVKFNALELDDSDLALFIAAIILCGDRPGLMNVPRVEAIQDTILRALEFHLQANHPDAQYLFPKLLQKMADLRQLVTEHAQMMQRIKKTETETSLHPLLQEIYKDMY

Mus musculus [9] = assay: Anti-NASH activity in high-fat/high-sugar diet and CCl4-induced nonalcoholic steatohepatitis male C57BL/6 mouse assessed as decrease in hepatocyte ballooning score at 100 mg/kg, po administered for 4 weeks; assay type: functional, organism-based
[10] = Acute toxicity in ICR mouse assessed as change in serum CKMB level at 500 mg/kg, IG; assay type: organism-based; conditions: in vivo, po
Mus musculus [11] = assay: Anti-NASH activity in high-fat/high-sugar diet and CCl4-induced nonalcoholic steatohepatitis male C57BL/6 mouse assessed as increase in HDL level at 100 mg/kg, po administered for 4 weeks; assay type: functional, organism-based
Mus musculus [12] = assay: Hypolipidemic activity in Triton1339W-induced hyperlipidemic ICR mouse model assessed as reduction in plasma TG level at 80 mg/kg, administered once daily for 5 days; assay type: functional, organism-based; conditions: time 5.0 day
Mus musculus [13] = assay: Antioxidant activity in high-fat/high-sugar diet and CCl4-induced nonalcoholic steatohepatitis male C57BL/6 mouse assessed as increase in GPX1 mRNA expression at 100 mg/kg, po administered for 4 weeks; assay type: functional, organism-based
[14] = Acute toxicity in ICR mouse assessed as change in serum DBIL level at 500 mg/kg, IG; assay type: organism-based; conditions: in vivo, po
Mus musculus [15] = assay: Anti-fibrotic activity in high-fat/high-sugar diet and CCl4-induced nonalcoholic steatohepatitis male C57BL/6 mouse assessed as decrease in COL1A1 mRNA expression at 100 mg/kg, po administered for 4 weeks; assay type: functional, organism-based
Mus musculus [16] = assay: Anti-NASH activity in high-fat/high-sugar diet and CCl4-induced nonalcoholic steatohepatitis male C57BL/6 mouse assessed as decrease in serum TG level at 100 mg/kg, po administered for 4 weeks; assay type: functional, organism-based
Mus musculus [17] = assay: Antioxidant activity in high-fat/high-sugar diet and CCl4-induced nonalcoholic steatohepatitis male C57BL/6 mouse assessed as increase in catalase mRNA expression at 100 mg/kg, po administered for 4 weeks; assay type: functional, organism-based
Mus musculus [18] = assay: Anti-NASH activity in high-fat/high-sugar diet and CCl4-induced nonalcoholic steatohepatitis male C57BL/6 mouse assessed as decrease in ACC mRNA expression at 100 mg/kg, po administered for 4 weeks; assay type: functional, organism-based
Mus musculus [19] = assay: Anti-NASH activity in high-fat/high-sugar diet and CCl4-induced nonalcoholic steatohepatitis male C57BL/6 mouse assessed as decrease in liver non-esterified fatty acid contents at 100 mg/kg, po administered for 4 weeks; assay type: functional, organism-based
Mus musculus [20] = assay: Anti-NASH activity in high-fat/high-sugar diet and CCl4-induced nonalcoholic steatohepatitis male C57BL/6 mouse assessed as decrease in SREBP-1C mRNA expression at 100 mg/kg, po administered for 4 weeks; assay type: functional, organism-based
Mus musculus [21] = assay: Anti-fibrotic activity in high-fat/high-sugar diet and CCl4-induced nonalcoholic steatohepatitis male C57BL/6 mouse assessed as decrease in TGF-beta mRNA expression at 100 mg/kg, po administered for 4 weeks; assay type: functional, organism-based
[22] = Acute toxicity in ICR mouse assessed as change in serum ALB level at 500 mg/kg, IG; assay type: organism-based; conditions: in vivo, po
Mus musculus [23] = assay: Hypolipidemic activity in Triton1339W-induced hyperlipidemic ICR mouse model assessed as reduction in plasma TC level at 80 mg/kg, administered once daily for 5 days; assay type: functional, organism-based; conditions: time 5.0 day
[24] = Acute toxicity in ICR mouse assessed as change in serum creatinine level at 500 mg/kg, IG; assay type: organism-based; conditions: in vivo, po
Mus musculus [25] = assay: Antioxidant activity in high-fat/high-sugar diet and CCl4-induced nonalcoholic steatohepatitis male C57BL/6 mouse assessed as increase in SOD1 mRNA expression at 100 mg/kg, po administered for 4 weeks; assay type: functional, organism-based

For `COc1ccc(/C=C/c2cc(OC)cc(OCc3ccc(OCC(=O)O)c(F)c3)c2)cc1`, the Activity (Mus musculus [1]) was “Active”, the Activity (Mus musculus [2]) was “Active” and the Activity (Mus musculus [3]) was “Active”. For the same compound, the pEC50 [4] was 4.55, the Activity (Mus musculus [5]) was “Active” and the Activity (Mus musculus [6]) was “Active”. The Activity [7] was “Non-Toxic”, the pEC50 [8] was 5.32 and the Activity (Mus musculus [9]) was “Active”. The Activity [10] was “Non-Toxic”, the Activity (Mus musculus [11]) was “Active” and the Activity (Mus musculus [12]) was “Active”. The Activity (Mus musculus [13]) was “Active”, the Activity [14] was “Non-Toxic” and the Activity (Mus musculus [15]) was “Active”. For the same compound, the Activity (Mus musculus [16]) was “Active”, the Activity (Mus musculus [17]) was “Active” and the Activity (Mus musculus [18]) was “Active”. The Activity (Mus musculus [19]) was “Active”, the Activity (Mus musculus [20]) was “Active” and the Activity (Mus musculus [21]) was “Active”. For the same compound, the Activity [22] was “Non-Toxic”, the Activity (Mus musculus [23]) was “Active” and the Activity [24] was “Non-Toxic”. For the same compound, the Activity (Mus musculus [25]) was “Active”.
